# Measured values reported in PMC8780828 (Viruses, 2021).
# Like-named read-outs stand apart in the source and are kept apart here.
# Columns and labels:
# [1] = tested on: pseudovirus NL4-3ΔEnv-NanoLuc/SARS-CoV-2; assay: SARS-CoV-2 pseudovirus assay with pre-treated 293T/ACE2 cells; format: cell-based; conditions: 293T/ACE2 cells pre-treated with compound 30 min before infection
# [2] = tested on: pseudovirus NL4-3ΔEnv-NanoLuc/SARS-CoV-2; assay: organism not typed; format: cell-based; conditions: HT-1080; n=3
# [3] = tested on: pseudovirus NL4-3ΔEnv-NanoLuc/SARS-CoV-2; assay: organism not typed; format: cell-based; conditions: A549-ACE2; n=3
# [4] = tested on: SARS-CoV-2 (US_WA-1/2020); format: cell-based
# [5] = tested on: pseudovirus NL4-3ΔEnv-NanoLuc/SARS-CoV-2; assay: organism not typed; format: cell-based; conditions: 293T/ACE2
# [6] = tested on: pseudovirus NL4-3ΔEnv-NanoLuc/MERS-CoV; assay: microbe, parasite or virus in culture; format: cell-based; conditions: Middle East respiratory syndrome-related coronavirus, Huh-7; n=3; read-out: IC50
# [7] = tested on: pseudovirus NL4-3ΔEnv-NanoLuc/SARS-CoV; assay: microbe, parasite or virus in culture; format: cell-based; conditions: Severe acute respiratory syndrome coronavirus, HT-1080; n=3; read-out: IC50
# [8] = tested on: pseudovirus NL4-3ΔEnv-NanoLuc/SARS-CoV; assay: microbe, parasite or virus in culture; format: cell-based; conditions: Severe acute respiratory syndrome coronavirus, 293T/ACE2; n=3
# [9] = tested on: pseudovirus NL4-3ΔEnv-NanoLuc/MERS-CoV; assay: microbe, parasite or virus in culture; format: cell-based; conditions: Middle East respiratory syndrome-related coronavirus, MRC5; n=3; read-out: IC50
# [10] = tested on: control pseudovirus NL4-3.Luc.R-E-/A-MLV; assay: Control pseudovirus A-MLV assay in 293T/ACE2 cells; format: cell-based, amphotropic murine leukemia virus (A-MLV); conditions: NL43, 293T/ACE2
# [11] = tested on: pseudovirus NL4-3ΔEnv-NanoLuc/SARS-CoV; assay: microbe, parasite or virus in culture; format: cell-based; conditions: Severe acute respiratory syndrome coronavirus, A549-ACE2; n=3; read-out: IC50
# [12] = tested on: NL4-3ΔEnv-NanoLuc/SARS-CoV-2; assay: organism not typed; format: cell-based; conditions: for IC50: read-out: IC50 (range over the three cell lines)
# [13] = biological target: malate dehydrogenase (MDH); format: biochemical
# Trypsin = format: biochemical
# β-lactamase = format: biochemical
# in vitro [14] = conditions: human, Caco-2, A-to-B Papp (cell batch quality control)
# in vitro [15] = conditions: both, human, microsomes, pH 7.4
# SARS-CoV-2 [16] = conditions: A549-hACE2 cells; NLuc-based assay; cited from earlier work
# SARS-CoV-2 [17] = conditions: Vero E6 cells; NLuc-based assay; cited from earlier work
# MERS-CoV pseudovirus = assay: microbe, parasite or virus in culture; format: cell-based
# FLuc = FLuc (Photinus pyralis, UniProt P08659); format: biochemical
# Sequence of FLuc (P08659 whole entry): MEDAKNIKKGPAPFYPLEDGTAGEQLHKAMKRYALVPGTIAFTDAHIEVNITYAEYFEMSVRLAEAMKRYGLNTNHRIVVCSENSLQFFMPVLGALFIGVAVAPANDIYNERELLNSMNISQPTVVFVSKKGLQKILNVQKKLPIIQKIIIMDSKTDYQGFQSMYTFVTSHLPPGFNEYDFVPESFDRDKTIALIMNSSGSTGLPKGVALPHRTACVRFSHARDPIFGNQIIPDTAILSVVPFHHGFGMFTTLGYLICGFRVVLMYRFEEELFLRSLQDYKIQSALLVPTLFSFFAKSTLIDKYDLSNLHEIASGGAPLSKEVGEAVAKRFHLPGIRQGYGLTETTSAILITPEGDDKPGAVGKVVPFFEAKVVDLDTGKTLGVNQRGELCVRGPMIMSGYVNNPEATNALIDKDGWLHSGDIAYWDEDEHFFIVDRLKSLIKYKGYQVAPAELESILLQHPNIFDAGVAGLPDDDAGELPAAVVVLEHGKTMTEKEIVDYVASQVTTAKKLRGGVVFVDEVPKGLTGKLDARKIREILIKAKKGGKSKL
SMILES,IC50 [1] [nM],IC50 [2] [nM],IC50 [3] [nM],IC100 [4] [µM],IC50 [5] [nM],IC50 [6] [nM],IC50 [7] [nM],IC50 [8] [nM],IC50 [9] [nM],IC50 [10] [nM],IC50 [11] [nM],IC100 (range of IC100 values detected in the three cell lines) [12] [µM],IC50 [13] [nM],IC50 (Trypsin) [nM],IC50 (β-lactamase) [nM],also measured
O=C(O)c1cc(-c2ccc(/C=C3\SC(=S)N(CCc4ccccc4)C3=O)o2)ccc1Br [NBCoV8],> 2000,94 ± 9,254 ± 27,> 10,65.8 ± 6.2,509 ± 43,225 ± 26,128 ± 6.7,559 ± 66,> 2000,700 ± 70,1 to 2.5,,,,
Cc1ccc(-c2ccc(/C=C3\SC(=S)N(CCc4ccccc4)C3=O)o2)cc1C(=O)O [NBCoV4],> 2000,47.7 ± 16,73 ± 4.1,> 10,26 ± 1,131 ± 6,54 ± 3.5,80 ± 2,80 ± 18,1620 ± 115,100 ± 13,0.3 to 1,> 2000,> 2000,> 2000,IC50 [12]: 26 to 73 nM
"C[C@H]1O[C@@H](O[C@H]2[C@@H](O)C[C@H](O[C@H]3[C@@H](O)C[C@H](O[C@H]4CC[C@@]5(C)[C@H](CC[C@@H]6[C@@H]5C[C@@H](O)[C@]5(C)[C@@H](C7=CC(=O)OC7)CC[C@]65O)C4)O[C@@H]3C)O[C@@H]2C)C[C@H](O)[C@@H]1O [Digoxin, reference compound]",,,,,,,,,,,,,,,,Papp A→B (in vitro [14]): 0.34 ×10⁻⁶ cm/s
"C[C@]12CC[C@H]3[C@@H](CCC4=CC(=O)CC[C@@]43C)[C@@H]1CC[C@@H]2O [Testosterone, reference compound]",,,,,,,,,,,,,,,,half-life (in vitro [15]): 11.3 min; microsomal CLint (in vitro [15]): 122 µL/min/mg
CCC(CC)COC(=O)[C@H](C)N[P@](=O)(OC[C@H]1O[C@@](C#N)(c2ccc3c(N)ncnn23)[C@H](O)[C@@H]1O)Oc1ccccc1 [remdesivir],,,,,,,,,,,,,,,,antiviral potency (SARS-CoV-2 [16]): 115 nM; antiviral potency (SARS-CoV-2 [17]): 1280 nM
Cc1c(C(=O)O)cccc1-c1ccc(/C=C2\SC(=S)N(CCc3ccccc3)C2=O)o1 [NBCoV5],> 2000,1050 ± 252,> 2000,> 10,1200 ± 240,> 2000,1760 ± 330,1850 ± 179,> 2000,> 2000,> 2000,>2,> 2000,> 2000,> 2000,MERS-CoV inhibitory activity (MERS-CoV pseudovirus): no MERS-CoV inhibitory activity
Oc1ccc(/C=C/c2cc(O)cc(O)c2)cc1 [resveratrol],,,,,,,,,,,,,,,,effect on FLuc activity (FLuc): completely blocked
O=C(O)c1cc(-c2ccc(/C=C3\SC(=S)N(CCc4ccccc4)C3=O)o2)ccc1F [NBCoV3],> 2000,64 ± 18,120 ± 5,> 10,60.1 ± 8.5,158 ± 14,25.7 ± 0.6,17.8 ± 4,123 ± 17,960 ± 57,157 ± 12.5,0.5 to 1.2,> 2000,> 2000,> 2000,IC50 [12]: 60.1 to 120 nM
